Assay: solvent given as SMILES

COc1ccc(-c2nc(/C(C#N)=C/c3ccc(Cl)cc3)sc2-c2ccc(OC)cc2)cc1
emission maximum (in CC#N): 553 nm

CCCCCCCCC1(CCCCCCCC)c2cc3c(cc2-c2sc(-c4ccc(/C=C5\SC(=S)N(CC)C5=O)c5nsnc45)cc21)C(CCCCCCCC)(CCCCCCCC)c1cc(-c2ccc(/C=C4\SC(=S)N(CC)C4=O)c4nsnc24)sc1-3
emission maximum (in ClC(Cl)Cl): 728 nm

COC1=[N+]2C(=C(c3ccccc3)c3ccc(OC)n3[B-]2(F)F)C=C1
emission maximum (in CC#N): 628 nm | emission maximum (in CCCCCC): 623 nm | emission maximum (in CCOC(C)=O): 628 nm | emission maximum (in CO): 620 nm | emission maximum (in ClCCl): 630 nm

COCCOc1cc(C=O)c(OCCOC)cc1C=O
emission maximum (in CC(C)(C)O): 478 nm | emission maximum (in CC(C)CO): 479 nm | emission maximum (in CC(C)O): 479 nm | emission maximum (in CCCCO): 462 nm | emission maximum (in CCCO): 463 nm | emission maximum (in CCO): 464 nm | emission maximum (in CN(C)C=O): 465 nm | emission maximum (in CNC=O): 450 nm | emission maximum (in CO): 466 nm | emission maximum (in NC=O): 456 nm | emission maximum (in O): 495 nm

CCCCCCCCN1c2ccccc2Sc2cc(/C=C/c3ccc(N(c4ccc(/C=C/c5ccc6c(c5)Sc5ccccc5N6CCCCCCCC)cc4)c4ccc(/C=C/c5ccc(/C=C/c6ccc(N(c7ccc(/C=C/c8ccc(N(c9ccccc9)c9ccccc9)cc8)cc7)c7ccc(/C=C/c8ccc(N(c9ccccc9)c9ccccc9)cc8)cc7)cc6)c6nsnc56)cc4)cc3)ccc21
emission maximum (in C1CCOC1): 653 nm | emission maximum (in CCOC(C)=O): 646 nm | emission maximum (in CN(C)C=O): 749 nm | emission maximum (in Cc1ccccc1): 620 nm | emission maximum (in ClC(Cl)Cl): 668 nm | emission maximum (in ClCCl): 708 nm

Cc1ccccc1-c1c2ccc(=[N+]3CCCCC3)cc-2oc2cc(N3CCCCC3)ccc12
emission maximum (in CCO): 584 nm | emission maximum (in ClCCl): 582 nm

Cc1cc(C)cc(C)c1
emission maximum (in C1CCCCC1): 294.72 nm

Brc1cnc(-c2ccc(N(c3ccccc3)c3ccccc3)cc2)s1
emission maximum (in CO): 493 nm

C[Si]1(c2ccccc2)C(c2ccc(-n3c4ccccc4c4ccccc43)cc2)=C(c2ccccc2)C(c2ccccc2)=C1c1ccc(-n2c3ccccc3c3ccccc32)cc1
emission maximum (in C1CCOC1): 520 nm

C#CCNC1=C2C(C)=CC(C)=[N+]2[B-](F)(F)n2c(C)cc(C)c21
emission maximum (in C1CCCCC1): 501.5 nm | emission maximum (in CC(C)=O): 496 nm | emission maximum (in CCOC(C)=O): 497 nm | emission maximum (in CO): 496 nm | emission maximum (in OCC(F)(F)F): 494.5 nm

CCn1c2cc(OC)ccc2c2c3nsnc3c3c4ccc(OC)cc4n(CC)c3c21
emission maximum (in CN(C)C=O): 557 nm | emission maximum (in Cc1ccccc1): 517 nm | emission maximum (in ClCCl): 553 nm

CCC1(CC)c2ccccc2-c2c1c1c(c3c2C(CC)(CC)c2cc(-c4cccs4)ccc2-3)C(CC)(CC)c2cc(N(c3ccccc3)c3ccccc3)ccc2-1
emission maximum (in C1CCOC1): 422 nm

COc1cccc(/C=C/c2ccccc2)c1
emission maximum (in C1CCCCC1): 358 nm | emission maximum (in CC#N): 359 nm | emission maximum (in CC(C)O): 357 nm | emission maximum (in CCCCOCCCC): 358 nm | emission maximum (in CCOC(C)=O): 358 nm | emission maximum (in CCOCC): 357 nm

O=Cc1cc(O)ccc1O
emission maximum (in CC(C)=O): 423 nm | emission maximum (in CCCO): 484 nm | emission maximum (in CCO): 487 nm | emission maximum (in CN(C)C=O): 440 nm | emission maximum (in CN(C)P(=O)(N(C)C)N(C)C): 438 nm | emission maximum (in CNC=O): 479 nm | emission maximum (in CS(C)=O): 446 nm | emission maximum (in NC=O): 490 nm

COC(=O)c1c(-c2cc3ccccc3oc2=O)nn(-c2cccc(F)c2)c1C(=O)OC
emission maximum (in ClCCl): 402 nm

[O-][n+]1c(/C=C/c2ccc3ccccc3c2)nc(N2CCOCC2)c2c1CCCC2
emission maximum (in ClCCl): 546 nm

COc1cc(-c2nc3c4cccnc4c4ncccc4c3[nH]2)c(OC)cc1/C=C/c1nc2ccccc2[nH]1
emission maximum (in C1CCOC1): 443 nm | emission maximum (in CC#N): 457 nm | emission maximum (in CO): 461 nm | emission maximum (in ClCCl): 452 nm

COC(=O)C1=C(C(=O)OC)C2(c3ccccc3-c3c(Br)cc(Br)cc32)C2(/C=C/c3ccccc3)c3cc(OC)c(OC)cc3CCN12 (configuration not stated)
emission maximum (in ClCCl): 491 nm

COc1ccc(C2=CC(c3ccccc3)=C(c3ccccc3)C2)c2ccccc12
emission maximum (in ClCCl): 479 nm

COc1cc2c(cc1OC)C1=C[C@H](c3ccc(C)cc3)C3(C(C#N)=C(C#N)N1CC2)c1cc(Br)ccc1-c1ccc(Br)cc13
emission maximum (in ClCCl): 405 nm

CC1(C)CC(/C=C/c2ccc(-n3cncn3)cc2)=CC(=C(C#N)C#N)C1
emission maximum (in C1CCOC1): 520 nm | emission maximum (in CC#N): 522 nm | emission maximum (in CCO): 518 nm | emission maximum (in CCOC(C)=O): 515 nm | emission maximum (in ClCCl): 518 nm | emission maximum (in c1ccccc1): 511 nm

— the Deep4Chem optical property database
